Results published in the supplement of paper PMC10307832.

What was measured:
Assay in all cases: relative viability (nuclei count vs DMSO), 5 days (fraction); higher = more cells survive
IU1-47 + Olaparib = compound: CC1=CC(=C(N1C2=CC=C(C=C2)Cl)C)C(=O)CN3CCCCC3 [IU1-47] + O=C(c1cc(Cc2n[nH]c(=O)c3ccccc23)ccc1F)N1CCN(C(=O)C2CC2)CC1 [Olaparib] (partner 8 µM)
Summary of the method: (§1)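 Dosing by pin tool came one day after lung cancer cell lines were seeded in 1536-well plates, using either one drug or a fixed anchor-drug dose plus five library-drug doses (not always all listed) in √10 steps. After 5 days, nuclei were counted on 4× images. Relative viability is treated-well nuclei count divided by vehicle-well nuclei count, and values are medians of duplicate plates.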

IU1-47 + Lapatinib = compound: CC1=CC(=C(N1C2=CC=C(C=C2)Cl)C)C(=O)CN3CCCCC3 [IU1-47] + CS(=O)(=O)CCNCc1ccc(-c2ccc3ncnc(Nc4ccc(OCc5cccc(F)c5)c(Cl)c4)c3c2)o1 [Lapatinib] (partner 2 µM)
Summary of the method: as §1

IU1-47 + Tozasertib = compound: CC1=CC(=C(N1C2=CC=C(C=C2)Cl)C)C(=O)CN3CCCCC3 [IU1-47] + Cc1cc(Nc2cc(N3CCN(C)CC3)nc(Sc3ccc(NC(=O)C4CC4)cc3)n2)n[nH]1 [Tozasertib] (partner 0.1 µM)
Summary of the method: as §1

IU1-47 + Bortezomib = compound: CC1=CC(=C(N1C2=CC=C(C=C2)Cl)C)C(=O)CN3CCCCC3 [IU1-47] + CC(C)C[C@H](NC(=O)[C@H](Cc1ccccc1)NC(=O)c1cnccn1)B(O)O [Bortezomib] (partner 0.002 µM)
Summary of the method: as §1

Cell Line	relative viability (IU1-47 + Olaparib; first compound 0.08 µM)	relative viability (IU1-47 + Olaparib; first compound 0.253 µM)	relative viability (IU1-47 + Olaparib; first compound 0.8 µM)	relative viability (IU1-47 + Olaparib; first compound 8 µM)	relative viability (IU1-47 + Lapatinib; first compound 0.08 µM)	relative viability (IU1-47 + Lapatinib; first compound 0.253 µM)	relative viability (IU1-47 + Lapatinib; first compound 0.8 µM)	relative viability (IU1-47 + Lapatinib; first compound 2.53 µM)	relative viability (IU1-47 + Lapatinib; first compound 8 µM)	relative viability (IU1-47 + Tozasertib; first compound 0.08 µM)	relative viability (IU1-47 + Tozasertib; first compound 0.253 µM)	relative viability (IU1-47 + Tozasertib; first compound 0.8 µM)	relative viability (IU1-47 + Tozasertib; first compound 8 µM)	relative viability (IU1-47 + Bortezomib; first compound 0.08 µM)	relative viability (IU1-47 + Bortezomib; first compound 0.253 µM)	relative viability (IU1-47 + Bortezomib; first compound 0.8 µM)	relative viability (IU1-47 + Bortezomib; first compound 8 µM)	relative viability (IU1-47 + Olaparib; first compound 2.53 µM)	relative viability (IU1-47 + Tozasertib; first compound 2.53 µM)	relative viability (IU1-47 + Bortezomib; first compound 2.53 µM)
ABC-1	1.14	1.05	0.816	0.907	1.45	1.08	1.06	0.821	1.12	0.188	0.165	0.158	0.193	0.327	0.281	0.256	0.312			
NCI-H2347	0.652	0.607	0.628	0.603	1.13	0.863	1.04	0.761	0.834	0.561	0.518	0.632	0.445	0.913	0.76	0.892	0.746	0.562	0.51	0.827
NCI-H1993	1.22	1.01	1.08	1.14	0.82	0.754	0.741	0.815	0.748	0.525	0.619	0.645	0.54	1.26	1.25	1.18	1.18	1.08	0.602	1.37
NCI-H322M	0.838	0.838	0.813	0.757	0.574	0.622	0.507	0.633	0.561	0.496	0.558	0.506	0.477	1.22	1.2	1.12	1.29	0.845	0.54	1.17
NCI-H838	0.809	0.799	0.774	0.58	0.922	0.889	1.23	1.01	0.888	0.268	0.28	0.297	0.248	0.869	0.952	0.904	0.564	0.911	0.301	0.624
HARA	1.02		0.703	0.567	0.849	0.817	0.884	0.694	0.563	0.0876	0.0862	0.0879	0.0969	1.19	1.21	1.1	0.971	0.632		1.17
NCI-H2087	0.587	0.633	0.563	0.476	1.07	1.27	1.16	0.725	0.967	0.225	0.224	0.287	0.241	1.12	0.978	0.93	0.616	0.646		0.914
NCI-H1437	0.623	0.615	0.618	0.549	0.726	0.716	0.801	0.76	0.744	0.413	0.396	0.396	0.347	0.599	0.496	0.495	0.469	0.633	0.398	0.486
NCI-H650	0.447	0.426	0.378	0.413	0.854	0.934	0.656	1.03	0.74	0.759	0.824	0.751	0.698	0.908	0.811	0.952	0.681	0.4	0.779	0.742
COR-L23	0.382	0.389	0.314	0.405	1.19	1.12	1.07	0.92	0.892	0.184	0.183	0.206	0.18	1.12	1.1	1.21	1.08	0.396	0.207	0.932
COR-L 105	0.817	0.78	0.699	0.745	0.312	0.405	0.382	0.328	0.333	0.372	0.387	0.379	0.326	1.23	1.01	0.851	0.708	0.665	0.355	0.899
201T	0.829	0.869	0.854	0.666	1.04	1	1.05		0.957	0.991	0.947	1.05	0.762	1.1	1.06	1.14	1.05	0.838		
HCC-44	1.07	0.978	1.03	0.93	0.985	1.03	1.07	1.05	0.825	1.13	1.16	0.968	1.22	0.891	0.851	0.89	0.898	1.06	0.995	0.873
NCI-H596	0.676		0.754	0.632	1.04	1.11	1.02	1.2	0.989	0.935	0.978	0.864	0.954	1.03	0.929	1.11	0.995	0.718	0.887	1.07
H3255	0.64	0.609	0.569	0.561	0.242	0.242	0.256	0.238	0.246	0.725	0.636	0.643	0.752	1.15	1.12	0.766	0.619	0.54	0.416	0.793
NCI-H647	0.661	0.755	0.556	0.333	1.02	1.22	1.37	1.22	0.49	0.372	0.309		0.306	0.97	0.904	1.08	0.862	0.783	0.248	0.859
NCI-H2023	0.454	0.639	0.49	0.479	0.924	0.872	0.805	0.334	0.994	0.329	0.363	0.366	0.291	0.94	1.15	1	1.12	0.44	0.349	0.481
